Series [1] deals with Hepatitis C virus. Description: Antiviral activity against HCV1b infected in human HuH-7 cells assessed as inhibition of viral replication at 10 uM after 3 days by luciferase assay. Particulars: Hepacivirus hominis, genotype 1b. The series is classed as functional, organism-based.
In series [2] the test system is West Nile virus. In words: Antiviral activity against West Nile virus infected in baby hamster BHK-WII RepRen1B cells assessed as inhibition of viral replication at 10 uM after 3 days by luciferase assay. The series is classed as functional, organism-based.
Series [3] can be described thus: Cytotoxicity against human CEM-SS cells assessed as cell viability at 10 uM after 6 days by MTS assay. It is filed as cell-based. Particulars: read-out: Activity. On the technique in general: Formazan colour is commonly taken as a measure of viable cells.
Series [4] has as its system Influenza A virus. Description: Antiviral activity against Influenza A/WSN/33 virus infected in human A549 cells assessed as inhibition of virus-induced cytopathic effect at 10 uM after 5 days by neutral red assay. It is filed as functional. The conditions noted are these: A/WSN/1933(H1N1), A549, 120 h. For orientation: Cytopathic effects are the visible damage that an infection or toxin causes in cultured cells.

The test system of series [5] is Human immunodeficiency virus 1. In words: Antiviral activity against HIV1 3B infected in human CEM-SS cells assessed as inhibition of virus-induced cytopathic effect at 10 uM after 6 days by MTS assay. The series is classed as functional. The conditions noted are these: Human immunodeficiency virus 1, 3B, 144 h.
Series [6] relates to Influenza A virus. Description: Antiviral activity against Influenza A/WSN/33 virus infected in MDCK cells assessed as inhibition of virus-induced cytopathic effect at 10 uM after 5 days by neutral red assay. The series is classed as functional. Particulars: A/WSN/1933(H1N1), 120 h.

For orientation: inhibition means the change of the read-out against control, counted positive when it falls.

Calls of active or inactive are those of the source. The calls are words filed in the database; no cut-off is given here.

Take `Cc1cn([C@H]2C[C@H](O)[C@](CO)(n3cc(-c4ccc(F)cc4)nn3)O2)c(=O)[nH]c1=O`: the inhibition result in series [1] and in series [2] was “inactive” throughout. Further, the viability at 144 h, 10 µM in series [3] came to 95%. The inhibition at 10 µM in series [4] and in series [5] was 0% in each case.

As for `Cc1cn([C@H]2C[C@H](O)[C@](CO)(n3cc(-c4ccc(N(C)C)cc4)nn3)O2)c(=O)[nH]c1=O`, the inhibition entry in series [1] and in series [2] was “inactive” throughout. The inhibition at 10 µM in series [6] came to 1%; in series [4], 21%; in series [5] it was 12%. Moreover, the viability at 144 h, 10 µM in series [3] worked out at 100%.

Regarding `Cc1cn([C@H]2C[C@H](O)[C@](CO)(n3cc(CON4C(=O)c5ccccc5C4=O)nn3)O2)c(=O)[nH]c1=O`, the inhibition entry in series [1] and in series [2] was “inactive” each time. Moreover, the viability at 144 h, 10 µM in series [3] came out at 99%. Further, the inhibition at 10 µM in series [4] was determined as 3.7%; in series [5] it was 1%.

Turning to `Cc1cn([C@H]2C[C@H](O)[C@](CO)(n3cc(-c4ccsc4)nn3)O2)c(=O)[nH]c1=O`, the inhibition result in series [1] and in series [2] was “inactive” throughout. Further, in series [3], the viability at 144 h, 10 µM was determined as 100%. Moreover, the results for the inhibition at 10 µM in series [4] and in series [5] were 0% and 19%, respectively.

For `Cc1cn([C@H]2C[C@H](O)[C@](CO)(n3cc(-c4ccccc4)nn3)O2)c(=O)[nH]c1=O`, the inhibition entry in series [1] and in series [2] was “inactive” in each case. Besides, in series [3], the viability at 144 h, 10 µM was 94%. Also, the inhibition at 10 µM stood at 0% in series [4] and 62% in series [5].

`CCOC(=O)C(Cc1ccc(OCc2cn([C@]3(CO)O[C@@H](n4cc(C)c(=O)[nH]c4=O)C[C@@H]3O)nn2)cc1)NC(=O)OC(C)(C)C` (stereo partly specified): the inhibition result in series [1] and in series [2] was “inactive” each time. For the same compound, the viability at 144 h, 10 µM in series [3] stood at 97%. Besides, the inhibition at 10 µM in series [4] and in series [5] was 0% in each case.

As for `Cc1cn([C@H]2C[C@H](O)[C@](CO)(n3cc(C(O)c4ccccc4)nn3)O2)c(=O)[nH]c1=O` (stereo partly specified), the inhibition entry in series [1] and in series [2] was “inactive” each time. Also, in series [3], the viability at 144 h, 10 µM came to 100%. For the same compound, the inhibition at 10 µM stood at 5% in series [4] and 0% in series [5].

On to `CC(=O)Nc1ccc(-c2cn([C@]3(CO)O[C@@H](n4cc(C)c(=O)[nH]c4=O)C[C@@H]3O)nn2)cc1`, for which the inhibition result in series [1] and in series [2] was “inactive” throughout. For the same compound, the inhibition at 10 µM in series [6] was 3%; in series [4], 54%; in series [5] it was 0%. For the same compound, the viability at 144 h, 10 µM in series [3] amounted to 98%.

Turning to `Cc1ccc(-c2cn([C@]3(CO)O[C@@H](n4cc(C)c(=O)[nH]c4=O)C[C@@H]3O)nn2)cc1`, the inhibition entry in series [1] and in series [2] was “inactive” throughout. Besides, in series [3], the viability at 144 h, 10 µM is 99%. Besides, the inhibition at 10 µM in series [4] and in series [5] was 0% in each case.

Consider `Cc1cn([C@H]2C[C@H](O)[C@](CO)(n3cc(CSc4ccccc4)nn3)O2)c(=O)[nH]c1=O`, for which the inhibition result in series [1] and in series [2] was “inactive” throughout. For the same compound, in series [3], the viability at 144 h, 10 µM was 99%. The inhibition at 10 µM is 3.3% in series [4] and 20% in series [5].

Take `Cc1cn([C@H]2C[C@H](O)[C@](CO)(n3cc(C(C)O)nn3)O2)c(=O)[nH]c1=O` (stereo partly specified): the inhibition result in series [1] and in series [2] was “inactive” in each case. Further, the viability at 144 h, 10 µM in series [3] was determined as 100%. Further, the inhibition at 10 µM in series [4] was determined as 0%; in series [5] it was 8%.

On to `Cc1cn([C@H]2C[C@H](O)[C@](CO)(n3cc(CO)nn3)O2)c(=O)[nH]c1=O`, for which the inhibition entry in series [1] and in series [2] was “inactive” in each case. Moreover, the viability at 144 h, 10 µM in series [3] is 100%. For the same compound, the inhibition at 10 µM in series [4] stood at 0%; in series [5] it was 2%.

On to `Cc1cn([C@H]2C[C@H](O)[C@](CO)(n3cc(COc4ccc5ccccc5c4)nn3)O2)c(=O)[nH]c1=O`, for which the inhibition entry in series [1] and in series [2] was “inactive” in each case. In addition, the inhibition at 10 µM in series [6] came out at 1%; in series [4] it was 16%; in series [5], 0%. Moreover, the viability at 144 h, 10 µM in series [3] came out at 93%.

In the case of `Cc1cn([C@H]2C[C@H](O)[C@](CO)(n3cc(C4CC4)nn3)O2)c(=O)[nH]c1=O`, the inhibition result in series [1] and in series [2] was “inactive” throughout. Moreover, in series [3], the viability at 144 h, 10 µM is 99%. The inhibition at 10 µM in series [4] and in series [5] was 0% in each case.

Take `Cc1cn([C@H]2C[C@H](O)[C@](CO)(n3cc(-c4ccc(Oc5ccccc5)cc4)nn3)O2)c(=O)[nH]c1=O`: the inhibition result in series [1] and in series [2] was “inactive” throughout. For the same compound, the inhibition at 10 µM is 1% in series [6], 48% in series [4] and 1% in series [5]. Moreover, in series [3], the viability at 144 h, 10 µM is 95%.

Consider `Cc1cn([C@H]2C[C@H](O)[C@](CO)(n3cc(C4CCCC4)nn3)O2)c(=O)[nH]c1=O`, for which the inhibition entry in series [1] and in series [2] was “inactive” throughout. Besides, the viability at 144 h, 10 µM in series [3] turned out to be 100%. In addition, the inhibition at 10 µM amounted to 3.1% in series [4] and 5% in series [5].

Regarding `Cc1cn([C@H]2C[C@H](O)[C@](CO)(n3cc(C4CCCCC4)nn3)O2)c(=O)[nH]c1=O`, the inhibition result in series [1] and in series [2] was “inactive” in each case. In series [3], the viability at 144 h, 10 µM amounted to 96%. Moreover, the inhibition at 10 µM in series [4] is 2.2%; in series [5], 0%.

Turning to `COc1ccc2c(-c3cn([C@]4(CO)O[C@@H](n5cc(C)c(=O)[nH]c5=O)C[C@@H]4O)nn3)cccc2c1`, the inhibition result in series [1] and in series [2] was “inactive” in each case. Besides, the viability at 144 h, 10 µM in series [3] worked out at 95%. Moreover, the values for the inhibition at 10 µM in series [4] and in series [5] were 5.3% and 0%, respectively.

With `Cc1cn([C@H]2C[C@H](O)[C@](CO)(n3cc(-c4ccc(-c5ccccc5)cc4)nn3)O2)c(=O)[nH]c1=O`, the inhibition entry in series [1] and in series [2] was “inactive” throughout. For the same compound, the viability at 144 h, 10 µM in series [3] amounted to 80%. Moreover, the inhibition at 10 µM was determined as 1.7% in series [4] and 31% in series [5].

On to `COc1ccc2cc(-c3cn([C@]4(CO)O[C@@H](n5cc(C)c(=O)[nH]c5=O)C[C@@H]4O)nn3)ccc2c1`, for which the inhibition entry in series [1] and in series [2] was “inactive” throughout. In addition, the viability at 144 h, 10 µM in series [3] was determined as 95%. Further, the figures for the inhibition at 10 µM in series [4] and in series [5] were 0% and 18%, respectively.

As for `Cc1cn([C@H]2C[C@H](O)[C@](CO)(n3cc(-c4ccc(Br)cc4)nn3)O2)c(=O)[nH]c1=O`, the inhibition entry in series [1] and in series [2] was “inactive” in each case. Besides, the figures for the inhibition at 10 µM in series [6], in series [4] and in series [5] were 4%, 18% and 60%, respectively. Besides, in series [3], the viability at 144 h, 10 µM worked out at 100%.

Turning to `COc1ccc(-c2cn([C@]3(CO)O[C@@H](n4cc(C)c(=O)[nH]c4=O)C[C@@H]3O)nn2)cc1`, the inhibition entry in series [1] and in series [2] was “inactive” throughout. The inhibition at 10 µM in series [6] is 1%; in series [4], 19%; in series [5], 0%. The viability at 144 h, 10 µM in series [3] came out at 84%.

Turning to `Cc1cn([C@H]2C[C@H](O)[C@](CO)(n3cc(COc4ccccc4)nn3)O2)c(=O)[nH]c1=O`, the inhibition result in series [1] and in series [2] was “inactive” each time. In addition, in series [3], the viability at 144 h, 10 µM was 97%. The inhibition at 10 µM in series [4] was 10%; in series [5], 0%.

For the compound `Cc1cn([C@H]2C[C@H](O)[C@](CO)(n3cc(-c4cc5ccccc5c5ccccc45)nn3)O2)c(=O)[nH]c1=O`, the inhibition entry in series [1] and in series [2] was “inactive” each time. In series [3], the viability at 144 h, 10 µM is 86%. The inhibition at 10 µM in series [4] and in series [5] was 0% each time.

Source of the values: ChEMBL document CHEMBL3132855, “Synthesis and antiviral evaluation of 4-(1,2,3-triazol-1-yl)thymidines” (Medchemcomm, 2014).
